These results are taken from US20240109893A1, “PREPARATION AND APPLICATION METHOD OF HETEROCYCLIC COMPOUNDS AS KRAS INHIBITOR” (SHANGHAI KECHOW PHARMA, INC., priority 2020, published 2024).

The subject of one series is H358 cells. The experiment in a line: Cell activity experiment: activity test of H358 cells (MTT, 5 days). Format: cell-based. To be noted: 5 days incubation, absorbance 492 nm. In outline:
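Viability was read by MTT: 4 h dye incubation, DMSO solubilisation, absorbance at 492 nm. This followed 5 days' treatment (37° C., 5% CO2) of H358 cells, pre-grown 24 h, with eight-point 3-fold dilutions up to 10000 nM final, 0.5% DMSO final, triplicate wells.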

Series [1] in a line: Pharmacokinetic experiment in SD rats. Format: in vivo. As to conditions: male, Sprague-Dawley, rat, plasma, po, 10 mg/kg; read-out: Oral bioavailability, F %. On the procedure:
Pharmacokinetic Experiment in SD Rats:
1. SPF male rats were randomly divided into groups. The compounds to be tested were separately administered by intravenous injection and oral gavage, with 3 animals for each compound to be tested in each mode of administration. The administration solvent was 5% DMSO+10% Solutol+85% normal saline or 85% PBS, and the substances to be tested were dissolved in the solvent to obtain clear solutions. Administration concentration and volume: 1) a single intravenous injection of 0.6 mg/mL of the compound to be tested, with an administration volume of 5 mL/kg and an administration dosage of 3 mg/kg; and 2) a single oral gavage of 1 mg/mL of the compound to be tested, with an administration volume of 10 mL/kg and an administration dosage of 10 mg/kg. The rats were fasted overnight (10-14 h) before administration and fed 4 h after administration.
2. Blood was collected via the jugular vein or by other appropriate methods at 200 μL per time point and anticoagulated with K2-EDTA, and after collection, the blood was placed on ice and centrifuged for plasma within 1 h (centrifugation conditions: 6800 g, 6 min 2-8° C.). The points for blood sampling from the animals in the intravenous injection group were respectively: before administration, and 5 min, 15 min, 30 min, 1 h, 2 h, 4 h, 8 h, and 24 h after administration; and the points for blood sampling from the animals in the oral administration group were respectively: before administration, and 15 min, 30 min, 1 h, 2 h, 4 h, 6 h, 8 h, and 24 h after administration.
3. The blood concentration was detected, and the pharmacokinetic parameter AUC(0-t) was calculated by Phoenix WinNonlin based on the blood concentration data at various time points. When the pharmacokinetic parameters were calculated, the BLQ before Cmax (including ‘No peak’) was calculated as 0: and BLQ after Cmax (including ‘No peak’) was not involved in the calculation.

For another series, the target named is KRAS G12C-GDP (Homo sapiens (Human), UniProt P01116, G12C). The experiment in a line: KRAS G12C-GDP exchange test (SOS/cRAF/GTP, HTRF). Format: biochemical. As to conditions: 1 h premix with compound, 2 h reaction with SOS, cRAF, GTP. The method, then:
2. A mixture of SOS (Pharmaron, ZZY-20190823), cRAF (Pharmaron, ZZY-20190823), GTP (Sigma, A6885-100MG), MAb Anti 6HIS-d2/MAb Anti GST-Eu (Cisbio, 61HISDLB/61GSTKLB) was added for a catalyzed reaction for 2 h.
3. The fluorescence signals of the emitted light at 615 nm and 665 nm under 320 nm excitation light were read by Biotek Microplate Reader (Synergy4).
4. The IC50 (median inhibitory concentration) of the compound was obtained by the following non-linear fitting formula: Y=Bottom+(Top−Bottom)/(1+10^((Log IC50−X)*Hill Slope)), and the data were analyzed by Graphpad 6-0 software.
On the technique in general: In TR-FRET formats the signal depends on donor and acceptor labels being close together.

Regarding `C=C(F)C(=O)N1CCN(c2nc(OC[C@@]34CCCN3C[C@H](F)C4)nc3c(F)c(-c4cccc5ccc(F)c(Cl)c45)ccc23)C[C@@H]1CC#N` [Example 914, 2-((S)-4-(7-(8-chloro-7-fluoronaphthalen-1-yl)-8-fluoro-2-((2R,7aS)-2-fluorotetrahydro-1H-pyrrolizin-7a(5H)-ylmethoxy)quinazolin-4-yl)-1-(2-fluoroacryloyl)piperazin-2-yl)acetonitrile], the midpoint of inhibition with H358 cells (Homo sapiens, NCI-H358, 120 h), the IC50, lay at 0.4 nM. The bioavailability – broadly, dose-corrected exposure relative to a reference, in per cent – in series [1] was determined as 28.5%.

For `C=C(F)C(=O)N1CCN(c2nc(OC[C@@H]3CCCN3C)nc3c(F)c(-c4cccc5cccc(Cl)c45)ccc23)C[C@@H]1CC#N` [Example 903], the IC50 (as a rule, the point on the concentration scale where inhibition reaches its midpoint) worked out at 0.7 nM in the series on H358 cells (Homo sapiens, NCI-H358, 120 h) and 0.89 nM on KRAS G12C-GDP. Besides, the bioavailability in series [1] is 28.6%.

Regarding `C=C(F)C(=O)N1CCN(c2nc(OC[C@@]34CCCN3C[C@H](F)C4)nc3c(F)c(-c4cccc5cccc(Cl)c45)ccc23)C[C@@H]1CC#N` [Example 904, 2-((S)-4-(7-(8-chloronaphthalen-1-yl)-8-fluoro-2-((2R,7aS)-2-fluorotetrahydro-1H-pyrrolizin-7a(5H)-methoxy)quinazolin-4-yl)-1-(2-fluoroacryloyl)piperazin-2-yl)acetonitrile], the IC50 in the series on H358 cells (Homo sapiens, NCI-H358, 120 h) stood at 0.4 nM; at KRAS G12C-GDP it was 0.93 nM. The bioavailability in series [1] came out at 30.3%.

Consider `C=CC(=O)N1CCN(c2nc(OCC34CCCN3CCC4)nc3c(F)c(-c4cccc5c4CCCC5)ncc23)C[C@@H]1CC#N` [Example 2, (S)-2-(1-acryloyl-4-(8-fluoro-2-((tetrahydro-1H-pyrrolizin-7a(5H)-yl)methoxy)-7-(5,6,7,8-tetrahydronaphthalen-1-yl)pyridino[4,3-d]pyrimidin-4-yl)piperazin-2-yl)acetonitrile], for which the IC50 worked out at 1 nM in the series with H358 cells (Homo sapiens, NCI-H358, 120 h) and 10.6 nM on KRAS G12C-GDP.

With `C=CC(=O)N1CCN(c2nc(OC[C@@H]3CCCN3C)nc3c(F)c(-c4cccc5c4CC4CC54)ccc23)C[C@@H]1CC#N` (single isomer, unassigned) [Example 881], the IC50 with H358 cells was 3.4 nM; on KRAS G12C-GDP, 0.71 nM.

As to `C=C(F)C(=O)N1CCN(c2nc(OC[C@@]34CCCN3C[C@H](F)C4)nc3c(F)c(-c4cccc5c4CC4CC54)ccc23)C[C@@H]1CC#N` (single isomer, unassigned) [Example 887], the IC50 with H358 cells was found to be 2.65 nM; on KRAS G12C-GDP it was 1.02 nM. Also, in series [1], the bioavailability was determined as 25.9%.

Turning to `C=CC(=O)N1CCN(c2nc(OCC3(CN4CCCC4)CC3)nc3c(F)c(-c4cccc5cccc(Cl)c45)ncc23)C[C@@H]1CC#N` [Example 854, (S)-2-(1-acryloyl-4-(7-(8-chloronaphthalen-1-yl)-8-fluoro-2-((1-(pyrrolidin-1-ylmethyl)cyclopropyl)methoxy)pyridino[4,3-d]pyrimidin-4-yl)piperazin-2-yl)acetonitrile], the IC50 in the series with H358 cells (Homo sapiens, NCI-H358, 120 h) was determined as 4.4 nM; on KRAS G12C-GDP it was 0.59 nM.

As for `C=CC(=O)N1CCN(c2nc(OC[C@@H]3CCCN3C)nc3nc(-c4cccc5cccc(Cl)c45)ccc23)C[C@@H]1CC#N` [Example 254, 2-((S)-1-acryloyl-4-(7-(8-chloronaphthalen-1-yl)-2-(((S)-1-methylpyrrolidin-2-yl)methoxy)pyridino[2,3-d]pyrimidin-4-yl)piperazin-2-yl)acetonitrile], the IC50 with H358 cells (Homo sapiens, NCI-H358, 120 h) stood at 30 nM; on KRAS G12C-GDP, 8.9 nM.

For `C=C(F)C(=O)N1CCN(c2nc(OC[C@@]34CCCN3C[C@H](F)C4)nc3c(F)c(-c4cccc5c4CC4CC54)ncc23)C[C@@H]1CC#N` (single isomer, unassigned) [Example 879], the IC50 was 4 nM in the series on H358 cells and 0.59 nM on KRAS G12C-GDP. The bioavailability in series [1] came out at 16.9%.

Take `C=CC(=O)N1CCN(c2nc(OC[C@@H]3CCCN3C)nc3cc(-c4cccc5cccc(Cl)c45)ccc23)C[C@@H]1CC#N` [Example 73, 2-((S)-1-acryloyl-4-(7-(8-chloronaphthalen-1-yl)-2-(((S)-1-methylpyrrolidin-2-yl)methoxy)quinazolin-4-yl)piperazin-2-yl)acetonitrile]: the IC50 in the series on H358 cells (Homo sapiens, NCI-H358, 120 h) is 15 nM; on KRAS G12C-GDP, 1.34 nM.

`C=CC(=O)N1CCN(c2nc(OC[C@@]34CCCN3C[C@H](F)C4)nc3c(F)c(-c4cccc5cccc(Cl)c45)ccc23)C[C@@H]1CC#N` [Example 367, 2-((2S)-1-acryloyl-4-(7-(8-chloronaphthalen-1-yl)-8-fluoro-2-((((2R,7aS)-2-fluorotetrahydro-1H-pyrrolizin-7a(5H))-yl)methoxy)quinazolin-4-yl)piperazin-2-yl)acetonitrile] gave a half-maximal inhibitory concentration (IC50) with H358 cells (Homo sapiens, NCI-H358, 120 h) of 1.5 nM. In series [1], the bioavailability came to 11.6%.

Turning to “2-((S)-1-acryloyl-4-(6-fluoro-7-(8-chloro-7- fluoronaphthalen-1-yl)-2-(((S)-1-methylpyrrolidin-2- yl))methoxy)quinazolin-4-yl)piperazin-2-yl)acetonitrile [Example 395]”, the 50% inhibitory concentration (IC50) with H358 cells worked out at 61 nM; at KRAS G12C-GDP, 1.32 nM.

Take `C=CC(=O)N1CCN(c2nc(OC[C@@H]3CCCN3C)nc3cc(-c4cccc5ccc(F)c(Cl)c45)cnc23)C[C@@H]1CC#N` [Example 840, 2-((S)-1-acryloyl-4-(7-(8-chloro-7-fluoronaphthalen-1-yl)-2-(((S)-1-methylpyrrolidin-2-yl)methoxy)pyridino[3,2-d]pyrimidin-4-yl)piperazin-2-yl)acetonitrile]: the half-inhibitory concentration (IC50) worked out at 809 nM in the series with H358 cells (Homo sapiens, NCI-H358, 120 h) and 4.52 nM on KRAS G12C-GDP.

As for `C=CC(=O)N1CCN(c2nc(OC[C@@H]3CCCN3C)nc3nc(-c4cccc5c4CCCC5)ccc23)C[C@@H]1CC#N` [Example 286, 2-((S)-1-acryloyl-4-(2-(((S)-1-methylpyrrolidin-2-yl)methoxy)-7-(5,6,7,8-tetrahydronaphthalen-1-yl)pyridino[2,3-d]pyrimidin-4-yl)piperazin-2-yl)acetonitrile], the values for the 50% inhibitory concentration (IC50) with H358 cells and at KRAS G12C-GDP were 355 nM and 9.91 nM, respectively.

In the case of `C=CC(=O)N1CCN(c2nc(OC[C@@H]3CCCN3C)nc3c(F)c(-c4cccc5c4CCCC5)ncc23)C[C@@H]1CC#N` [Example 1, 2-((S)-1-acryloyl-4-(8-fluoro-2-(((S)-1-methylpyrrolidin-2-yl)methoxy)-7-(5,6,7,8-tetrahydronaphthalen-1-yl)pyridino[4,3-d]pyrimidin-4-yl)piperazin-2-yl)acetonitrile], the IC50 in the series on H358 cells (Homo sapiens, NCI-H358, 120 h) is 15 nM; at KRAS G12C-GDP, 20.3 nM.

On to `C=CC(=O)N1CCN(c2nc(OC[C@@H]3CCCN3C)nc3c(F)c(-c4cccc5c4CC4CC54)ncc23)C[C@@H]1CC#N` (single isomer, unassigned) [Example 873], for which the half-maximal inhibitory concentration (IC50) with H358 cells is 12 nM; on KRAS G12C-GDP, 0.79 nM.

Consider `C=CC(=O)N1CCN(c2nc(OC[C@@H]3CCCN3C)nc3c(F)c(-c4cccc5cccc(Cl)c45)ccc23)C[C@@H]1CC#N` [Example 358, 2-((S)-1-acryloyl-4-(7-(8-chloronaphthalen-1-yl)-8-fluoro-2-(((S)-1-methylpyrrolidin-2-yl)methoxy)quinazolin-4-yl)piperazin-2-yl)acetonitrile], for which the 50% inhibitory concentration (IC50) with H358 cells (Homo sapiens, NCI-H358, 120 h) came out at 3.4 nM; at KRAS G12C-GDP it was 2.4 nM. In addition, in series [1], the bioavailability was found to be 2.35%.
